# Test: Precipitation of alfaxalone from alfaxalone/2-hydroxypropyl-β-cyclodextrin complex solution on adding preservative without co-solvent
# Assay type: physicochemical
# Conditions: upwards to 1% w/v (typical content); no co-solvent
compound,measurement,value
OCc1ccccc1 [benzyl alcohol],benzyl alcohol content at which significant precipitation occurs (titration),≥ 0.2 % w/v

# — patent US9492552B2, “Injectable aqueous pharmaceutical compositions comprising a cyclodextrin, a hydrophobic drug, a co-solvent, and a preservative” (JUROX PTY LTD, priority 2011, dated 2016)
